For series [1], the target named is T1, ATP-binding cassette sub-family C member 2 (Homo sapiens, UniProt Q92887). Nature of the series: TP_TRANSPORTER: excretion in MRP2-expressing CHO cells. The settings on record: hamster. The class given is functional, cell-based.
For series [2], the target named is T1, ATP-binding cassette sub-family C member 2. Briefly: TP_TRANSPORTER: excretion in MRP2-expressing COS-7 cells. The class given is functional, cell-based. The settings on record: monkey.

T1 sequence (Q92887 whole entry): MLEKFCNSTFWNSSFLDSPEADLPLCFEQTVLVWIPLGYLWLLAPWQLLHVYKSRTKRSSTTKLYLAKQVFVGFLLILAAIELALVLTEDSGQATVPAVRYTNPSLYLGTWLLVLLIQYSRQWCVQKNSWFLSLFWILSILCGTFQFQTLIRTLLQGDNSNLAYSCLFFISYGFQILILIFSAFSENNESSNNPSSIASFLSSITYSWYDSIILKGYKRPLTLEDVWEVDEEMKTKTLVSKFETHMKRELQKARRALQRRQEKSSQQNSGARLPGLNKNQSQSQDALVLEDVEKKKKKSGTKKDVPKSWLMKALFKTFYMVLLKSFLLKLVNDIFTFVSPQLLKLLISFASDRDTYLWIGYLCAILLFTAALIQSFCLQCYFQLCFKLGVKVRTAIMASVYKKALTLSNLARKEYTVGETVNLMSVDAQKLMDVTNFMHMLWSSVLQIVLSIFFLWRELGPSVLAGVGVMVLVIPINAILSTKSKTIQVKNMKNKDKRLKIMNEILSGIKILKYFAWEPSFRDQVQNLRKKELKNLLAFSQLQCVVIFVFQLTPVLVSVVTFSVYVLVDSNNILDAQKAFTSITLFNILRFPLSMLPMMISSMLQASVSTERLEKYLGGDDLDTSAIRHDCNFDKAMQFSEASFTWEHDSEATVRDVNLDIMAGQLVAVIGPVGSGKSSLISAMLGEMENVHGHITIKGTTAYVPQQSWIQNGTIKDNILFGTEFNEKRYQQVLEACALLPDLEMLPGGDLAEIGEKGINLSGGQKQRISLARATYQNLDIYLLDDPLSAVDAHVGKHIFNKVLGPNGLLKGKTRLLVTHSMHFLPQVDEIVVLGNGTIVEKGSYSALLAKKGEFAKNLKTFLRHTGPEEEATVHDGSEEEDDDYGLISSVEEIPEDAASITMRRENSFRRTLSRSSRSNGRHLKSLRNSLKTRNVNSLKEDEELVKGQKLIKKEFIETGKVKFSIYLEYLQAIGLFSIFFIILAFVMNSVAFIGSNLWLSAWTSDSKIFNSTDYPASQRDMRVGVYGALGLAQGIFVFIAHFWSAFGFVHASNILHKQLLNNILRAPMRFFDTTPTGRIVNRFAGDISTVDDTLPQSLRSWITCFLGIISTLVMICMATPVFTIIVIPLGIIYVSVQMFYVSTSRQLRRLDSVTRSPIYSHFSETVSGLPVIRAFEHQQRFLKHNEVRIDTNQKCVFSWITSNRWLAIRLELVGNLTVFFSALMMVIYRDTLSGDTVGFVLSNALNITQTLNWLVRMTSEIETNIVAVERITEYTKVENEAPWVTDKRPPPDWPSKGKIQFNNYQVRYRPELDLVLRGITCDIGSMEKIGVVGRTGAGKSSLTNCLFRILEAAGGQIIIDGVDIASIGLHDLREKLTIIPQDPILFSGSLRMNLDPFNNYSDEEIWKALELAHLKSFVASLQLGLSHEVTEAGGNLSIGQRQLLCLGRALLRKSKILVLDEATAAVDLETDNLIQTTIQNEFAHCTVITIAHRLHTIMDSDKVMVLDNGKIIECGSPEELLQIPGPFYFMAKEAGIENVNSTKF

`N[C@@H](CCC(=O)N[C@H](CSc1cc(=O)n2c(=O)ccn12)C(=O)NCC(=O)O)C(=O)O`: the Activity result in series [1] and in series [2] was “substrate [+]” each time.

For the compound `N[C@@H](CCC(=O)N[C@H](CSCc1ccc(-c2c3ccc(=O)cc-3oc3cc(O)ccc23)c(C(=O)O)c1)C(=O)NCC(=O)O)C(=O)O` [Glutathione-methylfluorescein], the Activity entry in series [1] and in series [2] was “substrate [+]” throughout.
